Experimental data as given in patent US8471061B2 (priority 2004, dated 2013).
Read-outs that look alike come from different tables or passages of the source.

Columns and labels:
[1] = test system: spiderwort Commelina communis; experiment: Plant activating effect, foliar application, spiderwort; assay type: in vivo; conditions: 21 days, 12 plants
Experimental: A total of 12 pots, in which 600 g of volcanic ash soil was packed in a porcelain pot of 12 cm in inner diameter, and 1 plant of a spiderwort Commelina communis grown to a height of 15 cm was planted in 1 pot, were prepared and placed under a constant temperature environment of 20° C., and foliar application treatment was carried out once a day using the following application liquids. Conditions of the leaves 21 days thereafter were observed.

[2] = Stimulation test (sense of taste, solid put on the tongue); assay type: in vivo; set-up: key to sense of taste stimulation: 0: No stimulation is felt.; 1: There is a stimulation but weak.; 2: There is a strong stimulation; conditions: for sense of taste stimulation: 5 mg of solid on the tongue, one score per subject, five subjects
Experimental: Each of five subjects has evaluated the sense of taste of the 5-aminolevulinic acid phosphate obtained in Example 1, in accordance with the following criteria by directly putting 5 mg of its solid on the tongue.
• 0: No stimulation is felt. • 1: There is a stimulation but weak. • 2: There is a strong stimulation.
The sense of taste was evaluated in the same manner as in Example 6, except that 5 mg of solid of 5-aminolevulinic acid hydrochloride was used.

[3] = test system: cotton (variety; M-5 Acala); experiment: Salinity tolerance improving effect; assay type: in vivo; set-up: key: salt damage: 0 = none, 5 = plant withered
Experimental: A porcelain pot of 12 cm in inner diameter having no drainage hole was filled with 600 g of upland soil, and 7 to 8 seeds of cotton seeds (variety; M-5 Acala) were sowed, covered with 1 cm in thickness of the soil and allowed to grow in a green house. Thereafter, general management was carried out, and at the time of leaflet development, a salinity improving agent containing each of the compounds to be tested with respective concentrations shown in Table 12 and 0.05% (v/v) of a spreader (Neoesterin: manufactured by Kumiai Chemical Industry) was prepared and was applied to foliage at an application volume of 100 liters per 10 are. Four days thereafter, sodium chloride in an amount which corresponds to 0 to 1.5% by weight per soil weight as shown in Table 12 was dissolved in 30 ml of water and added dropwise to the soil. By further continuing general cultivation, examination was carried out 23 days thereafter. the examination was carried out by naked eye observation, and the results of salt damage were evaluated based on the following 6 steps.
• 0: Absolutely no salt damage is observed. • 1: Very weak salt damage is observed. • 2: Weak salt damage is observed. • 3: Obvious salt damage is observed. • 4: Strong salt damage is observed. • 5: The plant body withered up due to salt damage.

[4] = test system: radish; experiment: Plant activating effect, foliar application, radish; assay type: in vivo; conditions: 21 days, 12 seeds
Experimental: After 600 g of upland soil was packed in a porcelain pot of 12 cm in inner diameter, 12 grains of radish seeds were sowed therein, covered with 5 mm in depth of the soil and allowed to grow in a green house. Foliar application treatment was carried out once a day using the following application liquids. Conditions of the leaves 21 days thereafter were observed.

[5] = test system: female rats (Sprague-Dawley CD species); conditions: for Dead animals: 2000 mg/kg oral, per animal
Experimental: This test was carried out in accordance with the OECD Guideline No. 423 “Acute Oral Toxicity-Acute Toxicity Grading Method” (adopted on Dec. 17, 2001). Fasted female rats (Sprague-Dawley CD species) of 3 animals per group were treated with 5-aminolevulinic acid phosphate at a dose of 300 mg per kg body weight. In addition, other fasted female rats of two or more groups were treated at a dose of 2000 mg per kg body weight. They were observed after the administration continuously for 2 weeks.

[6] = treating concentration 10 ppm, NaCl 0 wt % per soil weight
[7] = treating concentration 10 ppm, NaCl 0.5 wt % per soil weight
[8] = treating concentration 10 ppm, NaCl 0.75 wt % per soil weight
[9] = treating concentration 10 ppm, NaCl 1 wt % per soil weight
[10] = treating concentration 10 ppm, NaCl 1.5 wt % per soil weight
[11] = treating concentration 30 ppm, NaCl 0 wt % per soil weight
[12] = treating concentration 30 ppm, NaCl 0.5 wt % per soil weight
[13] = treating concentration 30 ppm, NaCl 0.75 wt % per soil weight
[14] = treating concentration 30 ppm, NaCl 1 wt % per soil weight
[15] = treating concentration 30 ppm, NaCl 1.5 wt % per soil weight
[16] = treating concentration 100 ppm, NaCl 0 wt % per soil weight
[17] = treating concentration 100 ppm, NaCl 0.5 wt % per soil weight
[18] = treating concentration 100 ppm, NaCl 0.75 wt % per soil weight
[19] = treating concentration 100 ppm, NaCl 1 wt % per soil weight
[20] = treating concentration 100 ppm, NaCl 1.5 wt % per soil weight
[21] = treating concentration 300 ppm, NaCl 0 wt % per soil weight
[22] = treating concentration 300 ppm, NaCl 0.5 wt % per soil weight
[23] = treating concentration 300 ppm, NaCl 0.75 wt % per soil weight
[24] = treating concentration 300 ppm, NaCl 1 wt % per soil weight
[25] = treating concentration 300 ppm, NaCl 1.5 wt % per soil weight

Cl.NCC(=O)CCC(=O)O [5-aminolevulinic acid hydrochloride, reference compound]
6 plants: plants judged 1: A region discolored to yellow was found on the leaf surface ([4]; 1 ppm in tap water)
1: salt damage evaluation [3, 7] | salt damage evaluation [3, 8] | salt damage evaluation [3, 9] | salt damage evaluation [3, 12] | salt damage evaluation [3, 17] | salt damage evaluation [3, 18] | salt damage evaluation [3, 23] | salt damage evaluation [3, 24]
2: sense of taste stimulation [2] | salt damage evaluation [3, 10] | salt damage evaluation [3, 13] | salt damage evaluation [3, 19] | salt damage evaluation [3, 25]
4 plants: plants judged 1: A region discolored to yellow was found on the leaf surface ([1]; 100 ppm in tap water) | plants judged 0: Abnormality was not found on the leaf surface ([4]; 1 ppm in tap water) | plants judged 0: Abnormality was not found on the leaf surface ([4]; 10 ppm in tap water) | plants judged 1: A region discolored to yellow was found on the leaf surface ([4]; 10 ppm in tap water) | plants judged 2: A necrotic region was found on the leaf surface ([4]; 10 ppm in tap water) | plants judged 2: A necrotic region was found on the leaf surface ([4]; 100 ppm in tap water)
2 plants: plants judged 0: Abnormality was not found on the leaf surface ([1]; 1 ppm in tap water) | plants judged 2: A necrotic region was found on the leaf surface ([1]; 10 ppm in tap water) | plants judged 2: A necrotic region was found on the leaf surface ([4]; 1 ppm in tap water)
5 plants: plants judged 0: Abnormality was not found on the leaf surface ([1]; 10 ppm in tap water) | plants judged 1: A region discolored to yellow was found on the leaf surface ([1]; 10 ppm in tap water) | plants judged 0: Abnormality was not found on the leaf surface ([1]; 100 ppm in tap water) | plants judged 1: A region discolored to yellow was found on the leaf surface ([4]; 100 ppm in tap water)
3: salt damage evaluation [3, 14] | salt damage evaluation [3, 15] | salt damage evaluation [3, 20]
3 plants: plants judged 2: A necrotic region was found on the leaf surface ([1]; 1 ppm in tap water) | plants judged 2: A necrotic region was found on the leaf surface ([1]; 100 ppm in tap water) | plants judged 0: Abnormality was not found on the leaf surface ([4]; 100 ppm in tap water)
0: salt damage evaluation [3, 6] | salt damage evaluation [3, 11] | salt damage evaluation [3, 16] | salt damage evaluation [3, 21] | salt damage evaluation [3, 22]
7 plants: plants judged 1: A region discolored to yellow was found on the leaf surface ([1]; 1 ppm in tap water)

NCC(=O)CCC(=O)O.O=P(O)(O)O [5-aminolevulinic acid phosphate, 5-aminolevulinic Acid Phosphate]
2 plants: plants judged 2: A necrotic region was found on the leaf surface ([1]; 10 ppm in tap water) | plants judged 2: A necrotic region was found on the leaf surface ([1]; 100 ppm in tap water)
4 plants: plants judged 1: A region discolored to yellow was found on the leaf surface ([1]; 100 ppm in tap water)
1: sense of taste stimulation [2] | salt damage evaluation [3, 8] | salt damage evaluation [3, 14] | salt damage evaluation [3, 17] | salt damage evaluation [3, 22] | salt damage evaluation [3, 23]
6 plants: plants judged 0: Abnormality was not found on the leaf surface ([1]; 1 ppm in tap water) | plants judged 0: Abnormality was not found on the leaf surface ([1]; 100 ppm in tap water)
0: Dead animals ([5]; 0.5 hour after administration) | Dead animals ([5]; 1 hour after administration) | Dead animals ([5]; 2 hour after administration) | Dead animals ([5]; 4 hour after administration) | Dead animals ([5]; day 1 after administration) | Dead animals ([5]; day 2 after administration) | Dead animals ([5]; day 3 after administration) | Dead animals ([5]; day 4 after administration) | Dead animals ([5]; day 5 after administration) | Dead animals ([5]; day 6 after administration) | Dead animals ([5]; day 7 after administration) | Dead animals ([5]; day 8 after administration) | Dead animals ([5]; day 9 after administration) | Dead animals ([5]; day 10 after administration) | Dead animals ([5]; day 11 after administration) | Dead animals ([5]; day 12 after administration) | Dead animals ([5]; day 13 after administration) | Dead animals ([5]; day 14 after administration) | salt damage evaluation [3, 6] | salt damage evaluation [3, 7] | salt damage evaluation [3, 11] | salt damage evaluation [3, 12] | salt damage evaluation [3, 13] | salt damage evaluation [3, 16] | salt damage evaluation [3, 21]
strong stimulation was not found: stimulation on the tongue in comparison with hydrochloride ([2]; 5 mg of solid)
7 plants: plants judged 0: Abnormality was not found on the leaf surface ([1]; 10 ppm in tap water)
3 plants: plants judged 1: A region discolored to yellow was found on the leaf surface ([1]; 10 ppm in tap water)
1 plant^ plants: plants judged 2: A necrotic region was found on the leaf surface ([1]; 1 ppm in tap water)
3: salt damage evaluation [3, 10] | salt damage evaluation [3, 19] | salt damage evaluation [3, 25]
> 2,500 mg per kg body weight: acute oral 50% lethal dose (LD50) ([5]; fasted female rats, observed 2 weeks)
2: salt damage evaluation [3, 9] | salt damage evaluation [3, 15] | salt damage evaluation [3, 18] | salt damage evaluation [3, 24]
death was not found in all of the rats: death ([5]; 300 and 2000 mg per kg body weight, 2 weeks)
4: salt damage evaluation [3, 20]
5 plants: plants judged 1: A region discolored to yellow was found on the leaf surface ([1]; 1 ppm in tap water)
